Results reported in publication PMC9530963, “A cathelicidin antimicrobial peptide from Hydrophis cyanocinctus inhibits Zika virus infection by downregulating expression of a viral entry factor” (The Journal of Biological Chemistry, 2022).

Assays:
PGE2 = PGE2 production in A549 cells (ELISA); type: cell-based, Homo sapiens; conditions: 24 h, cell supernatant
Experimental: Figure 6 Hc-CATH downregulates AXL via inhibiting COX-2/PGE2/AC/PKA pathway.A, effect of Hc-CATH on COX-2 protein level. A549 cells were incubated with Hc-CATH (1.25, 2.5, or 5 μM) or PBS (solvent of Hc-CATH) at 37 °C for 24 h, COX-2 protein level was examined by Western blot (upper panel) and analyzed by ImageJ (lower panel). B, effect of Hc-CATH on the enzymatic activity of COX-2. Hc-CATH (1.25, 2.5, 5, and 10 μM) or PBS was incubated with COX-2. After incubation at 37 °C for 10 min, the enzymatic activity of COX-2 was detected by enzyme activity inhibitor screening kit. Celecoxib (COX-2 inhibitor, 100 nM) was used as positive control. C, effect of Hc-CATH on PGE2 production. A549 cells were incubated with Hc-CATH (5 μM) at 37 °C. After incubation for 24 h, the level of PGE2 in the cell supernatant was detected by ELISA. D and E, effect of AC (D) and PKA (E) on Hc-CATH-induced AXL downregulation. A549 cells were incubated with forskolin (FSK, agonist of AC, 10 μM) or H89 (inhibitor of PKA, 5 μM) at 37 °C. After incubation for 1 h, the culture media were removed, cells were washed three times with PBS, and fresh culture media were added to cells in the presence of Hc-CATH (5 μM). After incubation for 24 h, AXL protein level was examined by Western blot (upper panel of D and E) and analyzed by ImageJ (lower panel of D and E). ns, not significant, ∗∗p < 0.01, and ∗∗∗p < 0.001. […]

type I IFN signaling = assay: Type I IFN signaling in U251 cells (qPCR, Western blot); type: cell-based, Homo sapiens
Experimental: Figure 7 Hc-CATH-induced AXL downregulation reverses the negative regulation of AXL on type I IFN signaling.A, schematic diagram of B and C. B, effect of Hc-CATH on type I IFN signaling. U251 cells were cultured in the presence of Hc-CATH (2.5 μM) or same volume of PBS (solvent of peptide). After culture at 37 °C for 24 h, type I IFN genes were tested by qPCR. C, effect of Hc-CATH on type I IFN signaling upon ZIKV challenge. U251 cells were cultured in the presence of Hc-CATH (2.5 μM) or PBS (solvent of peptide) at 37 °C for 2 h. Cells were washed with PBS and incubated with ZIKV (MOI = 1) at 37 °C for 2 h. Cell were washed with PBS again and cultured in DMEM containing 2% FBS at 37 °C for 24 h. Type I IFN genes were tested by qPCR. D, schematic diagram of E–G. E and F, U251 cells were cultured in the presence of Hc-CATH (2.5 μM) or PBS (solvent of peptide) at 37 °C for 12 h. Cells were stimulated with SeV (MOI = 1) at 37 °C for 12 h. Type I IFN gene was tested by qPCR (E). […] DMEM, Dulbecco’s modified Eagle’s medium; FBS, fetal bovine serum; IFN, interferon; MOI, multiplicity of infection; qPCR, quantitative PCR; SeV, Sendai virus; ZIKV, Zika virus.
U251 cells were cultured with Hc-CATH (2.5 μM) or PBS at 37 °C for 24 h, and cells were collected for testing type I IFN signaling gene and protein by qPCR and WB, respectively. Upon ZIKV challenge, U251 cells were incubated with Hc-CATH (2.5 μM) or PBS at 37 °C for 2 h and washed three times with PBS. Cells were then incubated with ZIKV (MOI = 1) for 2 h and washed with PBS. After culture for 24 h, type I IFN signaling genes were tested by qPCR. Upon SeV challenge, U251 cells were incubated with Hc-CATH (2.5 μM) or PBS at 37 °C for 12 h, cells were then stimulated with SeV or same volume of PBS for 12 h, and type I IFN signaling gene and protein were tested by qPCR and WB, respectively.

## KFFKRLLKSVRRAVKKFRKKPRLIGLSTLL [Hc-CATH, cathelicidin antimicrobial peptide identified from the sea snake Hydrophis cyanocinctus]
PGE2
  synthesis of PGE2: significantly reduced the synthesis of PGE2
Type I IFN signaling; 2.5 μM 2 h, then ZIKV MOI = 1, 24 h, qPCR
  levels of type I IFN genes in response to ZIKV infection: upregulated the levels of type I IFN genes
Type I IFN signaling; 2.5 μM 12 h, then SeV MOI = 1 12 h, qPCR, compared with PBS
  IFN-β expression in response to SeV stimulation: significantly increased IFN-β expression
Type I IFN signaling; 2.5 μM, 24 h, qPCR
  levels of type I IFN genes: significantly increased the levels of type I IFN genes
Type I IFN signaling; 2.5 μM, Western blot, relative to PBS
  phosphorylation of TANK-binding kinase 1 and IRF3: increased the phosphorylation of TANK-binding kinase 1 and IRF3
